Test results published in article PMC4102788, “Linking off-target kinase pharmacology to the differential cellular effects observed among PARP inhibitors” (Oncotarget, 2014).

Key:
human HIPK2 kinase = biological target: T1, human HIPK2 kinase (Homo sapiens, UniProt Q9H2X6); test: Human HIPK2 kinase in vitro inhibition assay (Cerep, LANCE); format: biochemical; settings: human recombinant enzyme, 10 µM ATP
T1 construct: purchased Cerep (CRO that ran the assay) 2915 (781-H2)
Excerpt: (§1) Rucaparib, veliparib and olaparib were purchased from Selleckchem. Kinase in vitro assays were perfomed at Cerep (www.cerep.fr) by measuring the phosphorylation of appropriate peptide substrates by human recombinant enzymes and using FRET as a detection method (a detailed description of each kinase assay is available in online supplementary data).
Human HIPK2 kinase in vitro inhibition assay
All details for the HIPK2 in vitro assay can be consulted in the Cerep Catalogue available online under references 2915 (781-H2): http://www.cerep.fr/cerep/users/pages/catalog/Affiche_CondExp_Test.asp?test=2915 Evaluation of the effects of compounds on the activity of the human HIPK2 quantified by measuring the phosphorylation of the substrate Ulight- […]
-amide (MBP) using a human recombinant enzyme and the […]
mixture is incubated for 30 min at room temperature. […] After 60 more min, the fluorescence transfer is measured at λex=337 nm, λem=620 nm and λem=665 nm using a microplate reader (Envision, Perkin Elmer). The enzyme activity is determined by dividing the signal measured at λem=665 nm by that measured at λem=620 nm (ratio). The results are expressed as a percent inhibition of the control enzyme activity. […]

human PIM2 kinase = biological target: T2, human PIM2 kinase (Homo sapiens, UniProt Q9P1W9); test: Human Pim2 kinase in vitro inhibition assay (Cerep, LANCE/FRET); format: biochemical
T2 construct: purchased Cerep (CRO that ran the assay) 2920 (745-P2); host or cells: insect cells
Excerpt: as §1
Human Pim1 and Pim2 kinase in vitro inhibition assays
All details for the Pim1 and Pim2 in vitro assays can be consulted in the Cerep […]
http://www.cerep.fr/cerep/users/pages/catalog/Affiche_CondExp_Test.asp?test=2919, http://www.cerep.fr/cerep/users/pages/catalog/Affiche_CondExp_Test.asp?test=2920.
Evaluation of the effects of compounds on the activity of the human Pim1 and Pim2 kinases were quantified by measuring the phosphorylation of the substrate Ulight- […]
([…]) and ATP (30 µM for Pim1 and 3 µM for Pim2), and the mixture is incubated for 60 min at room temperature. […] After 60 more min, the fluorescence transfer is measured at λex=337 nm, λem=620 nm and λem=665 nm using a microplate reader (Envision, Perkin Elmer).
The enzyme activity is determined by dividing the signal measured at λem=665 nm by that measured at λem=620 nm (ratio). The results are expressed as a percent inhibition of the control enzyme activity. […]

STAT3 phosphorilation = system: STAT3 phosphorilation; parameters: method as in PMID 22678161; settings: at 5 µM; cited from earlier work

T2 sequence (Q9P1W9 whole entry): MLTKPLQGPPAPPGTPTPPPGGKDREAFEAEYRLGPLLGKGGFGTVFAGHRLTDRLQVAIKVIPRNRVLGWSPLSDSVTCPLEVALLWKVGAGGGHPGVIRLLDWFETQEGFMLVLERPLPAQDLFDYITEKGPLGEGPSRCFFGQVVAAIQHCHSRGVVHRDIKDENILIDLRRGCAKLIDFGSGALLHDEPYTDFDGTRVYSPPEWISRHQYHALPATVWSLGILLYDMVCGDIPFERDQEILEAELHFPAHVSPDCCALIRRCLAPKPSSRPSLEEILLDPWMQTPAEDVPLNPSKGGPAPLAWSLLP
T1 sequence (Q9H2X6 whole entry): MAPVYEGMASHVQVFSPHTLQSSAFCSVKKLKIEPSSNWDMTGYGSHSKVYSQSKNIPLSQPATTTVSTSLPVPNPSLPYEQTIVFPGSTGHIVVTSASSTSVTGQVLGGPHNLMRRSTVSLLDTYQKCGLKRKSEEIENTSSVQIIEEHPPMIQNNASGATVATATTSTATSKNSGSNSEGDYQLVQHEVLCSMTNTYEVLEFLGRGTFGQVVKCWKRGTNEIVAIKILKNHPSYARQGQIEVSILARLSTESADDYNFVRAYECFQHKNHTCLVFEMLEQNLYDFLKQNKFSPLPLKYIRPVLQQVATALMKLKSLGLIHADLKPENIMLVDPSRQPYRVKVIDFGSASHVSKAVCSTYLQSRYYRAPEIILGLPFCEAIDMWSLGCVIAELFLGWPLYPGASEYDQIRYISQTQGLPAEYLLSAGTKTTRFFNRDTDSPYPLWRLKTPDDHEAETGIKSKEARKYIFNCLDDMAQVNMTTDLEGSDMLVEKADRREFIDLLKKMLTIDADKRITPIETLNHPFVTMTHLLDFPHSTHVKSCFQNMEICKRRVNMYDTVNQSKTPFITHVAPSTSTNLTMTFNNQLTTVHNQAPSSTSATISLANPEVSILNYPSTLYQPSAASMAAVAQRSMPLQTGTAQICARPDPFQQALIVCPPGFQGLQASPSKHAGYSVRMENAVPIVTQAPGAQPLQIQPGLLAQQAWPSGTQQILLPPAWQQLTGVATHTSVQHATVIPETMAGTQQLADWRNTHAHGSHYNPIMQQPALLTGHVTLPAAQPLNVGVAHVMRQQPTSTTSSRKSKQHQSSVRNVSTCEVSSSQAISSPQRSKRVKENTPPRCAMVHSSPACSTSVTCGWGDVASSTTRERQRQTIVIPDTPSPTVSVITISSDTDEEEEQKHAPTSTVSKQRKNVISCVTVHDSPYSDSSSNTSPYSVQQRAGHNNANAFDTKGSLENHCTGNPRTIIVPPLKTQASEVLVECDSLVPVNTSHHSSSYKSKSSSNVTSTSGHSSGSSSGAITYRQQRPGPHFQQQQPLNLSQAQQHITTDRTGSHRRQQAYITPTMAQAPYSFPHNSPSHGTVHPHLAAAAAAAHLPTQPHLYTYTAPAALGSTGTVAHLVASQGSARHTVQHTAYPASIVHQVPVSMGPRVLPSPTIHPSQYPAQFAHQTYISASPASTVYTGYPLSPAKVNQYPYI

IC50 (human HIPK2 kinase): 4.4 µM
IC50 (human PIM2 kinase): 7.7 µM
SMILES: CNCc1ccc(-c2[nH]c3cc(F)cc4c3c2CCNC4=O)cc1 [rucaparib]
effect on STAT3 phosphorilation (STAT3 phosphorilation): inhibit STAT3 phosphorilation
